Laboratory results: PubChem BioAssay (NCI)
Where “and” joins values, the source holds several entries; their conditions need not be identical. Identical values can stand only once.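 Five compound concentrations were applied to cells in 96-well plates for 48 hours; endpoints were derived by simple linear interpolation of the resulting dose-response curve. The concentration for 50% growth inhibition is given as GI50. TGI: concentration producing complete growth inhibition.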

What was measured:
Experiment in all cases: growth of human tumour cells (NCI), 48 h
UACC-257 melanoma = tested on: UACC-257 melanoma
COLO 205 colon = tested on: COLO 205 colon
UO-31 renal = tested on: UO-31 renal
SNB-19 CNS = tested on: SNB-19 CNS
SK-MEL-5 melanoma = tested on: SK-MEL-5 melanoma
SNB-75 CNS = tested on: SNB-75 CNS
SF-268 CNS = tested on: SF-268 CNS
M14 melanoma = tested on: M14 melanoma
SF-295 CNS = tested on: SF-295 CNS
OVCAR-4 ovarian = tested on: OVCAR-4 ovarian
HOP-92 NSCLC = tested on: HOP-92 NSCLC
HT29 colon = tested on: HT29 colon
MDA-MB-435 = tested on: MDA-MB-435
A498 renal = tested on: A498 renal

Row | SMILES | TGI (UACC-257 melanoma) [µM] | TGI (COLO 205 colon) [µM] | TGI (UO-31 renal) | TGI (SNB-19 CNS) | TGI (SK-MEL-5 melanoma) [µM] | TGI (SNB-75 CNS) [µM] | TGI (SF-268 CNS) [µM] | TGI (M14 melanoma) [µM] | TGI (SF-295 CNS) [µM] | TGI (OVCAR-4 ovarian) [µM] | TGI (HOP-92 NSCLC) [µM] | TGI (HT29 colon) [µM] | TGI (MDA-MB-435) [µM] | TGI (A498 renal) | GI50 (UO-31 renal) | GI50 (SNB-19 CNS) | GI50 (A498 renal) | GI50 (SF-295 CNS)
1 | O=C1CCCC2(c3ccccc3)Nc3ccccc3N12 (configuration not stated) | > 100 | > 100 | > 100 µM | > 100 µM | > 100 | > 100 | > 100 | > 100 | > 100 | > 100 | > 100 | > 100 | > 100 |  |  |  |  | 
2 | Cc1nn(C(=O)Cc2ccccc2)c2c1C(c1ccc(N(C)C)cc1)SC(N)=N2 (configuration not stated) | > 100 | > 100 | > 100 µM | > 100 µM | > 100 | 32.9 | > 100 | > 100 | > 100 |  |  | > 100 | > 100 | > 100 µM |  |  |  | 
3 | CC(=O)N[C@@H](Cc1ccc(O)cn1)C(=O)NCc1cccc(Cl)c1 | > 100 | > 100 | > 100 µM | > 100 µM | > 100 |  | > 100 | > 100 | > 100 | > 100 |  | > 100 | > 100 | > 100 µM |  |  |  | 
4 | CC(C)Oc1ccc2c(c1)OCC1Cc3ccccc3OC21 (configuration not stated) | > 100 |  | > 100 µM |  | 47.5 |  | > 100 | > 100 | > 100 |  | > 100 | > 100 | > 100 | > 100 µM |  |  |  | 
5 | N#C/C(N)=C(\C#N)N=CN | > 100 | > 100 | > 100 µM |  | > 100 | > 100 | > 100 | > 100 | > 100 | > 100 | > 100 | > 100 | > 100 |  |  |  |  | 
6 | O=C(O)[C@@H]1CSCN1C(=O)[C@@H]1CCC(=S)N1 | > 100 |  | > 100 µM | > 100 µM | > 100 | > 100 | > 100 | > 100 | > 100 |  |  | > 100 | > 100 | > 100 µM |  |  |  | 
7 | COc1cc(OC)c2c(=O)c(OC)c(-c3ccc4c(c3)OCO4)oc2c1 | > 100 | > 100 | > 100 µM | 62.7 µM | > 100 | 33.5 | 66.6 | > 100 | 61.7 | > 100 |  | > 100 | > 100 | 57.1 µM |  |  |  | 
8 | O=C(Cc1ccccc1)N/N=C/c1ccccc1O | 58 | > 100 | 72.9 µM | > 100 µM | 49.4 | 59.8 | > 100 | 22.8 | 85.2 | > 100 | 54.8 | > 100 | > 100 |  |  |  |  | 
9 | NNc1nncc2n[nH]nc12 | > 100 | > 100 | > 100 µM | > 100 µM |  | 85.5 | > 100 | > 100 | > 100 |  |  | > 100 | > 100 | > 100 µM |  |  |  | 
10 | COc1ccc(-c2cc(=O)c3ccccc3[nH]2)c(OC)c1 | > 100 | > 100 | > 100 µM | > 100 µM |  | > 100 | > 100 | > 100 | > 100 |  |  | > 100 |  |  |  |  |  | 
11 | CN(/N=C/c1ccc(OCc2cccc(COc3ccc(C=O)cc3)n2)cc1)c1cnn(-c2ccc(Cl)cc2Cl)c(=O)c1Cl | > 100 | > 100 | > 100 µM | > 100 µM | > 100 | 39.9 | > 100 | > 100 | > 100 | > 100 |  | > 100 | > 100 | > 100 µM |  |  |  | 
12 | C=C1CCC23CC(CC[C@@H]2[C@@]12C[C@@H](c1ccoc1)OC2=O)OC3=O (some centres not stated) | > 100 | > 100 | > 100 µM | > 100 µM | > 100 |  | > 100 | > 100 | > 100 | > 100 | > 100 | > 100 |  | > 100 µM |  |  |  | 
13 | C/C(=C1/CCC/C(=C(/C)c2ccccc2)C1=O)c1ccccc1 | 74.9 | > 100 | > 100 µM | > 100 µM | 47.8 | > 100 | > 100 | > 100 | > 100 | > 100 | > 100 | 86.8 |  |  |  |  |  | 
14 | O=C1C(Cl)C(c2cccc(Cl)c2)N1c1ccc(-n2c(=S)[nH]c3ccccc3c2=O)cc1 (configuration not stated) | 98.6 | 77.9 | 49 µM | 16.3 µM | 31.4 |  | 39 | 58.7 | 41.8 | 39.6 | 94.5 | 43.3 | 36.6 |  |  |  |  | 
15 | COc1ccc(N2C(=O)c3cc(C)cnc3S2(=O)=O)cc1 |  | > 100 | > 100 µM | > 100 µM | > 100 | > 100 | > 100 |  | > 100 | > 100 | > 100 | > 100 | > 100 |  |  |  |  | 
16 | Cc1cc(=O)n2nc(CN3CCCCC3)sc2n1 | > 100 | > 100 | > 100 µM | > 100 µM | > 100 | > 100 | > 100 | > 100 | > 100 | > 100 | > 100 | > 100 | > 100 |  |  |  |  | 
17 | CCc1c(C)c(C#N)c(=S)n(C2OC(COC(C)=O)C(OC(C)=O)C(OC(C)=O)C2OC(C)=O)c1C (configuration not stated) | > 100 | > 100 | 92.2 µM and 14.5 µM | > 100 µM and 93 µM | > 100 |  | > 100 | > 100 | > 100 | > 100 |  | > 100 | > 100 | > 100 µM and 92.4 µM | 11 µM and 3.57 µM | > 100 µM and 21.5 µM | > 100 µM and 30.2 µM | > 100 µM and 23 µM
18 | c1csc(-c2cc(-c3cccs3)c(-c3ccsc3)s2)c1 | > 100 | > 100 | > 100 µM | > 100 µM | > 100 | > 100 | > 100 | > 100 | > 100 | > 100 |  | > 100 | > 100 | > 100 µM |  |  |  | 
19 | NC(CCC(=O)O)C(=O)N1CCN(c2nc(N3CCCC3)c3nc(Cl)c(NCc4ccccc4)nc3n2)CC1 (configuration not stated) | 28.5 | 23.9 | 21.6 µM | 34.4 µM | 20.9 | 25.3 | 29.1 | 22.6 | 26.7 | 29.1 | 32.2 | 25.5 | 26.2 |  |  |  |  | 
20 | O=C(O)Cc1cccc2c1OC(c1ccccc1)C(Cl)(C(=O)c1ccccc1)C2=O (configuration not stated) | 32 |  | 31.9 µM | > 100 µM | 28.6 | 40.9 | 76.1 |  | 66.3 |  |  | 30 | 30.6 |  |  |  |  | 
21 | C=CCc1cc(-c2cc(CC=C)c(O)c(CNCCCl)c2)cc(CNCCCl)c1O | 32.4 | 32.1 | 28.6 µM | > 100 µM | 28.6 | > 100 | 60.5 | 32.7 | 33.8 | 56.7 | 31.2 | 36.5 |  | 52.3 µM |  |  |  | 
22 | O=C1NCCCNCCCNCCCNC(=O)c2cccc1n2 | > 100 | > 100 | > 100 µM | > 100 µM | > 100 | > 100 | > 100 | > 100 | > 100 | > 100 |  | > 100 | > 100 |  |  |  |  | 
23 | Cc1ccc(N=Nc2c(C)c(C#N)c(=S)n(C3OC(CO)C(O)C(O)C3O)c2C)cc1 (configuration not stated) | > 100 | > 100 | 98.8 µM | > 100 µM | 35 | 73.2 | > 100 | 41.7 | > 100 | > 100 | 49.3 | > 100 | 81.2 |  |  |  |  | 
24 | c1ccc(CSP234N5CCN2CCN3CCN4CC5)c(CSP234N5CCN2CCN3CCN4CC5)c1 | > 100 | 47.3 | > 100 µM | > 100 µM | > 100 | > 100 | > 100 | > 100 | > 100 | > 100 | > 100 | > 100 | > 100 |  |  |  |  | 
25 | COc1ccc(C2C3=C(Nc4ncnn42)c2ccccc2OC3c2ccccc2)cc1 (configuration not stated) | > 100 | > 100 | > 100 µM | > 100 µM | 62.7 |  | > 100 | > 100 | > 100 |  |  |  | 23.7 | 6.36 µM |  |  |  | 
26 | Cc1ccc(-c2c3nc(c(-c4ccc(C)cc4)c4ccc([nH]4)c(-c4ccc(OCC5COC(C)(C)O5)cc4)c4nc(c(-c5ccc(C)cc5)c5ccc2[nH]5)C=C4)C=C3)cc1 (configuration not stated) | > 31.6 | > 31.6 | > 31.6 µM | > 31.6 µM | > 31.6 | > 31.6 | > 31.6 | > 31.6 | > 31.6 | > 31.6 | > 100 | > 31.6 | > 31.6 |  |  |  |  | 
27 | CCn1c(SCC(=O)NNC(=S)Nc2ccc(C)cc2)nc2ccccc2c1=O | > 100 | > 100 | 55.3 µM | > 100 µM | > 100 | > 100 | > 100 | > 100 | > 100 | > 100 |  | > 100 | > 100 | > 100 µM |  |  |  | 
